# From patent US20060241297A1, “Pyridinylamino-pyrimidine derivatives as protein kinase inhibitors” (Cyclacel Limited, priority 2003, published 2006)
# Like-named read-outs stand apart in the source and are kept apart here.
# Legend:
# [1] = tested on: Saos-2; assay: 72-h MTT cytotoxicity assay; format: cell-based; conditions: Homo sapiens
# Experimental: (§1) The compounds from the examples above were subjected to a standard cellular proliferation assay using human tumour cell lines obtained from the ATCC (American Type Culture Collection, 10801 University Boulevard, Manessas, Va. 20110-2209, USA). Standard 72-h MTT (thiazolyl blue; 3-[4,5-dimethylthiazol-2-yl]-2,5-diphenyltetrazolium bromide) assays were performed. In short: cells were seeded into 96-well plates according to doubling time and incubated overnight at 37° C. Test compounds were made up in DMSO and a 1/3 dilution series prepared in 100 μL cell media, added to cells (in triplicates) and incubated for 72 ho at 37° C. MTT was made up as a stock of 5 mg/mL in cell media and filter-sterilised. Media was removed from cells followed by a wash with 200 μL PBS. MTT solution was then added at 20 μL per well and incubated in the dark at 37° C. for 4 h. MTT solution was removed and cells again washed with 200 μL PBS. MTT dye was solubilised with 200 μL per well of DMSO with agitation. Absorbance was read at 540 nm and data analysed using curve-fitting software (GraphPad Prism version 3.00 for Windows, GraphPad Software, San Diego Calif. USA) to determine IC50 values (concentration of test compound which inhibits cell growth by 50%). Various modifications and variations of the described aspects of the invention will be apparent to those skilled in the art without departing from the scope and spirit of the invention. Although the invention has been described in connection with specific preferred embodiments, it should be understood that the invention as claimed should not be unduly limited to such specific embodiments. Indeed, various modifications of the described modes of carrying out the invention which are obvious to those skilled in the relevant fields are intended to be within the scope of the following claims.
# [2] = tested on: A549; assay: 72-h MTT cytotoxicity assay; format: cell-based; conditions: Homo sapiens
# Experimental: as §1
# [3] = tested on: HT29; assay: 72-h MTT cytotoxicity assay; format: cell-based; conditions: Homo sapiens, HT-29
# Experimental: as §1
# [4] = tested on: transformed human cell lines (A549, HT29, Saos-2); assay: 72-h MTT cytotoxicity assay, average over cell lines; format: cell-based
# Experimental: as §1
# [5] = target: GSK3β (Homo sapiens, UniProt P49841); assay: Kinase assay, incorporation of radioactive phosphate from ATP; format: biochemical; conditions: 100 μM ATP, 30° C.; read-out: Kinase inhibition Ki GSK3β
# Experimental: (§2) The compounds from the examples above were investigated for their ability to inhibit the enzymatic activity of various protein kinases. This was achieved by measurement of incorporation of radioactive phosphate from ATP into appropriate polypeptide substrates. Recombinant protein kinases and kinase complexes were produced or obtained commercially. Assays were performed using 96-well plates and appropriate assay buffers (typically 25 mM β-glycerophosphate, 20 mM MOPS, 5 mM EGTA, 1 mM DTT, 1 mM […], pH 7.4), into which were added 2-4 μg of active enzyme with appropriate substrates. The reactions were initiated by addition of Mg/ATP mix (15 mM MgCl2+100 μM ATP with 30-50 kBq per well of [γ-^32P]-ATP) and mixtures incubated as required at 30° C. Reactions were stopped on ice, followed by filtration through p81 filterplates or GF/C filterplates (Whatman Polyfiltronics, Kent, UK). After washing 3 times with 75 mM aq orthophosphoric acid, plates were dried, scintillant added and incorporated radioactivity measured in a scintillation counter (TopCount, Packard Instruments, Pangboume, Berks, UK). Compounds for kinase assay were made up as 10 mM stocks in DMSO and diluted into 10% DMSO in assay buffer. Data was analysed using curve-fitting software (GraphPad Prism version 3.00 for Windows, GraphPad Software, San Diego Calif. USA) to determine IC50 values (concentration of test compound which inhibits kinase activity by 50%.).
# [6] = target: CDK7/cyclin H (Homo sapiens, UniProt P50613); assay: as above; format: biochemical; conditions: 100 μM ATP, 30° C.; read-out: Kinase inhibition Ki CDK7/cyclin H
# Experimental: as §2
# [7] = target: CDK2/cyclin A (Homo sapiens, UniProt P24941); assay: as above; format: biochemical; conditions: 100 μM ATP, 30° C.; read-out: Kinase inhibition Ki CDK2/cyclin A
# Experimental: as §2
# [8] = target: CDK4/cyclin D1 (Homo sapiens, UniProt P11802); assay: as above; format: biochemical; conditions: 100 μM ATP, 30° C.; read-out: Kinase inhibition Ki CDK4/cyclin D1
# Experimental: as §2
# [9] = target: CDK2/cyclin E (Homo sapiens, UniProt P24941); assay: as above; format: biochemical; conditions: 100 μM ATP, 30° C.; read-out: Kinase inhibition Ki CDK2/cyclin E
# Experimental: as §2
# [10] = target: CDK9/cyclin T1 (Homo sapiens, UniProt P50750); assay: as above; format: biochemical; conditions: 100 μM ATP, 30° C.; read-out: Kinase inhibition Ki CDK9/cyclin T1
# Experimental: as §2
# [11] = target: CDK1/cyclin B (Homo sapiens, UniProt P06493); assay: as above; format: biochemical; conditions: 100 μM ATP, 30° C.; read-out: Kinase inhibition Ki CDK1/cyclin B
# Experimental: as §2
# [12] = target: T1, Aurora-A (Homo sapiens, UniProt O14965); assay: as above; format: biochemical; conditions: 100 μM ATP, 30° C.; read-out: Kinase inhibition Ki Aurora-A
# T1 sequence (O14965 1-403): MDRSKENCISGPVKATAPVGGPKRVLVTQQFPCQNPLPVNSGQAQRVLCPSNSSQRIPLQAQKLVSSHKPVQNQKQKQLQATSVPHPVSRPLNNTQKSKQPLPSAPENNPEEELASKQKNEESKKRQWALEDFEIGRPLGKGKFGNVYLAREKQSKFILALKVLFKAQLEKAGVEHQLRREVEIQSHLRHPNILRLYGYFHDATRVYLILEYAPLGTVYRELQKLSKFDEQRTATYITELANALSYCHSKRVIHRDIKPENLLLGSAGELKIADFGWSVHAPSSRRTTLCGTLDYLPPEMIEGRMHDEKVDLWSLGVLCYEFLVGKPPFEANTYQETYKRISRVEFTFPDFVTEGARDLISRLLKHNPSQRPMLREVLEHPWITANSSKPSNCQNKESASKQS
# Experimental: as §2
# [13] = average of A549, HT29, Saos-2, read-out: 72-h MTT IC50 Average
# CDK4/cyclin D1, sequence (P11802 whole entry): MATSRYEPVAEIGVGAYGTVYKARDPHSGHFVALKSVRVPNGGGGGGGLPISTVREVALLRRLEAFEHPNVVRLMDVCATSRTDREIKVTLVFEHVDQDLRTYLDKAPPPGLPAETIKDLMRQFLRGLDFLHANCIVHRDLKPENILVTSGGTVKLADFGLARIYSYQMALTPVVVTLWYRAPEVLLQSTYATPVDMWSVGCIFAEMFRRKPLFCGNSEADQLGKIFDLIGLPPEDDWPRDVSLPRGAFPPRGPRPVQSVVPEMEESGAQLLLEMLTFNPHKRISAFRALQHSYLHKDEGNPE
# CDK4/cyclin D1, sequence (P24385 whole entry partner): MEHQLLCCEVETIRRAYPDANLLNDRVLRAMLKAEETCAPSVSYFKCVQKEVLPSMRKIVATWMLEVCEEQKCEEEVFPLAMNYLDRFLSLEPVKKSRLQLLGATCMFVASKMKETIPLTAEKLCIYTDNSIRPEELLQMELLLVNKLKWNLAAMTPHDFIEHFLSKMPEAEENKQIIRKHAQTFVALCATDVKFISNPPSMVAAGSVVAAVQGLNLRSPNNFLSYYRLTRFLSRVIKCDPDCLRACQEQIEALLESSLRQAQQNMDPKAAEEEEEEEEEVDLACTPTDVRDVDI
# CDK1/cyclin B, sequence (P06493 whole entry): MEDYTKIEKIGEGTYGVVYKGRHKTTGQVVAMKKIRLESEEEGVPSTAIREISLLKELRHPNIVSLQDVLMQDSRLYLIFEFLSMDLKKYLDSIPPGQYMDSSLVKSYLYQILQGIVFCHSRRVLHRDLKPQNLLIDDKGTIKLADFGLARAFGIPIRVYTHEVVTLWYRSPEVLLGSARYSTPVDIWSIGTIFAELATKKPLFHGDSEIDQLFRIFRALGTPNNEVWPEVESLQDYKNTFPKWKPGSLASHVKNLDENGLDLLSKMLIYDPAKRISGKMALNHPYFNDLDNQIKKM
# CDK1/cyclin B, sequence (P14635 whole entry partner): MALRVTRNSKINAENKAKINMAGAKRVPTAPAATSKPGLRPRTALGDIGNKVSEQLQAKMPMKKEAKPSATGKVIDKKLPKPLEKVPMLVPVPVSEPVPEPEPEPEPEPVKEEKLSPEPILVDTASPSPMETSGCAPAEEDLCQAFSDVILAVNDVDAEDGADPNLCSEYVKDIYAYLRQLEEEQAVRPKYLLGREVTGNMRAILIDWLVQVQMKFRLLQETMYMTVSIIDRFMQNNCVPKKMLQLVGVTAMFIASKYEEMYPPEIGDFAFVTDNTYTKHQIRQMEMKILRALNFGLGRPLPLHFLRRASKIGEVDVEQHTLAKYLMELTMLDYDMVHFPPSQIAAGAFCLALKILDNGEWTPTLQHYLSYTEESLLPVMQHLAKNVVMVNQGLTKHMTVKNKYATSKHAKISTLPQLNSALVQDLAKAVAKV
# GSK3β, sequence (P49841 whole entry): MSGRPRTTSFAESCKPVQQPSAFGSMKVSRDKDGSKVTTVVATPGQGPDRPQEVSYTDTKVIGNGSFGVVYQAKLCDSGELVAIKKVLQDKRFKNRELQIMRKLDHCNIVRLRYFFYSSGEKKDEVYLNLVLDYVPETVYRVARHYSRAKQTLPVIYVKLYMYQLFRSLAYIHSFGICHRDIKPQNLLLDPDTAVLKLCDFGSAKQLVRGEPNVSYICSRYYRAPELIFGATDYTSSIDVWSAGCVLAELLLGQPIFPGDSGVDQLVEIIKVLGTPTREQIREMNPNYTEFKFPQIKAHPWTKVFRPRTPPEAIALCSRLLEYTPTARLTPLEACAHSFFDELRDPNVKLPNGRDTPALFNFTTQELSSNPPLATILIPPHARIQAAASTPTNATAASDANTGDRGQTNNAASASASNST
# CDK7/cyclin H, sequence (P50613 whole entry): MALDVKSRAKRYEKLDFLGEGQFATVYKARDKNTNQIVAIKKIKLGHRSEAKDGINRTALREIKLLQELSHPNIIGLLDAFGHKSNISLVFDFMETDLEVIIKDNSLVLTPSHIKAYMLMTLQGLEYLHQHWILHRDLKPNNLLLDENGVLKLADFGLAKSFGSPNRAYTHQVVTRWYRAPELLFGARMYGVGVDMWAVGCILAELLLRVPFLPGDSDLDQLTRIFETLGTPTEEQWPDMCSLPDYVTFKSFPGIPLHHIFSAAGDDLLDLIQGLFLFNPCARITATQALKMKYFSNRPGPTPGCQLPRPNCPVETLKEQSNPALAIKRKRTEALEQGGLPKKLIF
# CDK7/cyclin H, sequence (P51946 whole entry partner): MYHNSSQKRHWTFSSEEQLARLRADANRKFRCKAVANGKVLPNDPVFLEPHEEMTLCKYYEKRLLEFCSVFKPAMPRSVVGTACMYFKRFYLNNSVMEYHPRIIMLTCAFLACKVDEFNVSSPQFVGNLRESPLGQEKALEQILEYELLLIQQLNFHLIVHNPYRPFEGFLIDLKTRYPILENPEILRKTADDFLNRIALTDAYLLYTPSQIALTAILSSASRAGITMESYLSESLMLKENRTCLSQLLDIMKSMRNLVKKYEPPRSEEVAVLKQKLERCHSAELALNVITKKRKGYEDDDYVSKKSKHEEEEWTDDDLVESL
# CDK9/cyclin T1, sequence (P50750 whole entry): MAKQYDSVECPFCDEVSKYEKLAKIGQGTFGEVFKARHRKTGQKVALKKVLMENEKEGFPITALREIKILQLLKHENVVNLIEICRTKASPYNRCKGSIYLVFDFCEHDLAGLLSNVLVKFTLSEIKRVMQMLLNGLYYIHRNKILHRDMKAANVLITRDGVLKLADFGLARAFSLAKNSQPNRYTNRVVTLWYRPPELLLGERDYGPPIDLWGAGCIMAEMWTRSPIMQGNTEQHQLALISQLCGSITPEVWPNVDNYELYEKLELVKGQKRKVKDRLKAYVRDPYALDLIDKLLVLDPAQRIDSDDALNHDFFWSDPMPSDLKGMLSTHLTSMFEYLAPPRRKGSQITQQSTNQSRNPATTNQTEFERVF
# CDK9/cyclin T1, sequence (O60563 whole entry partner): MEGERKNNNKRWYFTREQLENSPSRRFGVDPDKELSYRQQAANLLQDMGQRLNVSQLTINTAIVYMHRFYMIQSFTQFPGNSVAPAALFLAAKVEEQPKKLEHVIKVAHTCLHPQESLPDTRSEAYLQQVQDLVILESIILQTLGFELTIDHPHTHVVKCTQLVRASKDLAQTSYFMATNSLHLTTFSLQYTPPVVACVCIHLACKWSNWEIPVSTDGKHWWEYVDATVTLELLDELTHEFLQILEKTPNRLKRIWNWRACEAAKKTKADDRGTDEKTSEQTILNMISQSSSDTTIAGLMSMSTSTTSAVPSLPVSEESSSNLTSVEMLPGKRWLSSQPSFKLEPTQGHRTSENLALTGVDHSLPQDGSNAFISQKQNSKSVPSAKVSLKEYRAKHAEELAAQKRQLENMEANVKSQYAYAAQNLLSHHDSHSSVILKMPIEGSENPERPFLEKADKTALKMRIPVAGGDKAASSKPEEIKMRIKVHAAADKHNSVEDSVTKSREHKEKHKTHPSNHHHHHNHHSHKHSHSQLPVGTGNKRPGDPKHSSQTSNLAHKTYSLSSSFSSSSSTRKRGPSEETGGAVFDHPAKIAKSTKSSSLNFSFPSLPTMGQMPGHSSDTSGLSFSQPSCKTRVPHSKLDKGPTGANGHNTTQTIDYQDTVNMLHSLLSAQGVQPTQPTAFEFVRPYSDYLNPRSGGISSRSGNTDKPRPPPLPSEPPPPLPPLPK
Ki [5] [µM],Ki [6] [µM],Ki [7] [µM],Ki [8] [µM],Ki [9] [µM],Ki [10] [µM],Ki [11] [µM],Ki [12] [µM],melting point [°C],Compound,IC50 [1] [µM],IC50 [2] [µM],IC50 [3] [µM],"IC50 [4, 13] [µM]","IC50 ([4]; in vitro, read-out: IC50 value (average) against one or more transformed human cell lines, 72-h MTT cytotoxicity assay) [µM]"
0.11,7.2,1.7,0.66,0.35,0.97,4.2,0.86,–,"Cc1nc(C)c(-c2ccnc(Nc3ccc(Cl)nc3)n2)s1 [Compound 3, (6-Chloro-pyridin-3-yl)-[4-(2,4-dimethyl-thiazol-5-yl)-pyrimidin-2-yl]-amine]",4.4,9.8,2.8,5.7 ± 3.7,< 10
–,–,–,4.1,1.5,–,–,–,297 to 300,"Cc1nc(C)c(-c2ccnc(Nc3ccc[n+](C)c3)n2)s1 [Compound 2, 3-[4-(2,4-Dimethyl-thiazol-5-yl)-pyrimidin-2-ylamino]-1-methyl-pyridinium]",48.5,11.6,86,48.7 ± 37.2,–
